Where two headings read alike, the source gives them in different places.
Key:
PARP-1 = biological target: T1, PARP-1 (Homo sapiens, UniProt P09874); assay: PARP-1 inhibition assay (PARP-1 Chemiluminescent Assay Kit, BPS Bioscience); format: biochemical; settings: for inhibition at 0.01 µM: 10 nM compound
T1 construct: purchased BPS Bioscience 80569
Protocol: (§1) The PARP-1 and PARP-2 inhibition assays were performed in outsourcing, by a CRO company, Shanghai Medicilon Inc. (Shanghai, China). […] Briefly, PARP-1 or PARP-2 biotinylated substrate was incubated with compounds or solvent control at varying concentrations and an assay buffer containing the PARP-1 or PARP-2 enzyme.

PARP-2 = biological target: T2, PARP-2 (Homo sapiens, UniProt Q9UGN5); assay: PARP-2 inhibition assay (PARP-2 Chemiluminescent Assay Kit, BPS Bioscience); format: biochemical; settings: for inhibition at 0.01 µM: 10 nM compound
T2 construct: purchased BPS Bioscience 80552
Protocol: as §1

[1] = test system: MDA-MB-436 (a BRCA-1-mutated breast cancer cell line); assay: Cell proliferation assay, three-day, CellTiter-Glo, MDA-MB-436; format: cell-based; settings: for inhibition at 0.00508 µM / inhibition at 0.0152 µM / inhibition at 0.0457 µM / inhibition at 0.41 µM / inhibition at 1.23 µM / inhibition at 3.7 µM / inhibition at 11.11 µM / inhibition at 33.33 µM / inhibition at 100 µM / IC50: Homo sapiens; for inhibition at 0.00508 µM: MDA-MB-436, MDA-MB-436, Conc. 0.00508 uM; for inhibition at 0.0152 µM: MDA-MB-436, MDA-MB-436, Conc. 0.0152 uM; for inhibition at 0.0457 µM: MDA-MB-436, MDA-MB-436, Conc. 0.0457 uM; for inhibition at 0.41 µM: MDA-MB-436, MDA-MB-436, Conc. 0.41 uM; for inhibition at 1.23 µM: MDA-MB-436, MDA-MB-436, Conc. 1.23 uM; for inhibition at 3.7 µM: MDA-MB-436, MDA-MB-436, Conc. 3.70 uM; for inhibition at 11.11 µM: MDA-MB-436, MDA-MB-436, Conc. 11.11 uM; for inhibition at 33.33 µM: MDA-MB-436, MDA-MB-436, Conc. 33.33 uM; for inhibition at 100 µM: MDA-MB-436, MDA-MB-436, Conc. 100.00 uM
Outline: (§2)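 Luminescent ATP read-out (CellTiter-Glo, 60 min at room temperature) quantified viability after a 72 h compound exposure at 37 °C, 5% CO2. Compounds, diluted from DMSO stocks into growth medium, were added to cells plated the previous day.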

[2] = test system: CAPAN-1 (a BRCA-2-mutated pancreatic cancer cell line); assay: Cell proliferation assay, three-day, CellTiter-Glo, CAPAN-1; format: cell-based; settings: for IC50 / inhibition at 0.00508 µM / inhibition at 0.0152 µM / inhibition at 0.0457 µM / inhibition at […] / inhibition at 0.41 µM / inhibition at 1.23 µM / inhibition at 3.7 µM / inhibition at 11.11 µM / inhibition at 33.33 µM / inhibition at 100 µM: Homo sapiens; for inhibition at 0.00508 µM: CAPAN-1, 0.00508 uM; for inhibition at 0.0152 µM: CAPAN-1, 0.0152 uM; for inhibition at 0.0457 µM: CAPAN-1, 0.0457 uM; for inhibition at […]: CAPAN-1, 0.14 uM; for inhibition at 0.41 µM: CAPAN-1, 0.41 uM; for inhibition at 1.23 µM: CAPAN-1, 1.23 uM; for inhibition at 3.7 µM: CAPAN-1, 3.70 uM; for inhibition at 11.11 µM: CAPAN-1, 11.11 uM; for inhibition at 33.33 µM: CAPAN-1, 33.33 uM; for inhibition at 100 µM: CAPAN-1, 100.00 uM
Outline: as §2

T1 sequence (P09874 whole entry): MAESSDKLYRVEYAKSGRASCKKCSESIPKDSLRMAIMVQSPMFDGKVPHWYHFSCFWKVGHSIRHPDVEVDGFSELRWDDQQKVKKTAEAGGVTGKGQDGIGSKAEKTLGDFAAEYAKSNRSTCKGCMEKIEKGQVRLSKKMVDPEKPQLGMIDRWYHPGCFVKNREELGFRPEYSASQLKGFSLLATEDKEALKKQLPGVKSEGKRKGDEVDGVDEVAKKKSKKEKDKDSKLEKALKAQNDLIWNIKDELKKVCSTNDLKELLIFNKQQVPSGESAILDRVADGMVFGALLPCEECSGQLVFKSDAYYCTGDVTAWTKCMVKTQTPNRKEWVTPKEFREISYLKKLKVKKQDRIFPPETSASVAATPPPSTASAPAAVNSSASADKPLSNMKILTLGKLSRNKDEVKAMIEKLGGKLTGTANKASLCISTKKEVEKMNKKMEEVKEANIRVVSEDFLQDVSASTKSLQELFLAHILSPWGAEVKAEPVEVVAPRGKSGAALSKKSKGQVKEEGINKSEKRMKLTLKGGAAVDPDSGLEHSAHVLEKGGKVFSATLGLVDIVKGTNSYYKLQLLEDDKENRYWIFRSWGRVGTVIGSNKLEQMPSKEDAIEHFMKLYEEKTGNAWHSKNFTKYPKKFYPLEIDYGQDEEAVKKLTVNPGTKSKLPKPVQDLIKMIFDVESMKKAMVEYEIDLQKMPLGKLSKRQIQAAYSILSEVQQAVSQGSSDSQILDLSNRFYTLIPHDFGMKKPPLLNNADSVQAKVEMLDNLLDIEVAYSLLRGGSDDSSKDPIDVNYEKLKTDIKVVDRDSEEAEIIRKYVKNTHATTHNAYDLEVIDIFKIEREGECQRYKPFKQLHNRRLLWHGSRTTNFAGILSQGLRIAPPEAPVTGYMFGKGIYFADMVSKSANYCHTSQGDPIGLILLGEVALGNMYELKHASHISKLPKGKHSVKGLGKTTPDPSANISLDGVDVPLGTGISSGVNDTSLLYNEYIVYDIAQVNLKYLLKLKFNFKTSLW
T2 sequence (Q9UGN5 whole entry): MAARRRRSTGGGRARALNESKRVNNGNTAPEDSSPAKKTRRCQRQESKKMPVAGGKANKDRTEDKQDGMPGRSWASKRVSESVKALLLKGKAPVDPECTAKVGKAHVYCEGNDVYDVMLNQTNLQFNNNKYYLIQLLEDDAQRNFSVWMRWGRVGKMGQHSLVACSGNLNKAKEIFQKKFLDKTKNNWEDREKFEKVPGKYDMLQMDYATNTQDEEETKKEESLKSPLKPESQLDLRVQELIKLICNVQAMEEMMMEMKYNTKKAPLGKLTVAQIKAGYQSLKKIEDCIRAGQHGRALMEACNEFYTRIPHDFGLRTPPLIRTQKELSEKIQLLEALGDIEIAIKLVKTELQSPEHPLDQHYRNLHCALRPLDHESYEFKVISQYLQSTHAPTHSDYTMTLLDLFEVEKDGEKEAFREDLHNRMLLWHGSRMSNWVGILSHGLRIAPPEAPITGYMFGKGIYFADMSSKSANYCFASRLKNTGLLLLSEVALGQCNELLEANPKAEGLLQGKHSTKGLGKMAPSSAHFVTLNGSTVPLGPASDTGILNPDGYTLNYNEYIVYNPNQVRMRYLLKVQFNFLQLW

- inhibition at 0.01 µM (PARP-1; supplement sheet, read-out: 10 nM inhibition% PAPR-1): 42.8%
- inhibition at 0.01 µM (PARP-1; read-out: PARP-1 Inhibition % (10 nM)): 42.8%
- IC50 (PARP-1; read-out: PARP-1 IC50): 12.2 nM
- IC50 (PARP-1; supplement sheet, read-out: IC50 PAPR-1): 12.2 nM
- inhibition at 0.01 µM (PARP-2; supplement sheet, read-out: 10 nM inhibition% PAPR-2): 62.3%
- inhibition at 0.01 µM (PARP-2; read-out: PARP-2 Inhibition % (10 nM)): 62.3%
- IC50 (PARP-2; read-out: PARP-2 IC50): 5.8 nM
- IC50 (PARP-2; supplement sheet, read-out: IC50 PAPR-2): 5.76 nM
- IC50 ([1]; MDA-MB-436, 72 h, CellTiter-Glo, read-out: MDA-MB-436 IC50): 31.9 µM
- IC50 ([1]; MDA-MB-436, 72 h, supplement Summary sheet, read-out: IC50): 31.9 µM
- IC50 ([1]; MDA-MB-436, curve fit list, no unit in the cell, concentration in uM, read-out: IC50): 31.9 µM
- IC50 ([2]; CAPAN-1, 72 h, CellTiter-Glo, read-out: CAPAN-1 IC50): 20.7 µM
- IC50 ([2]; CAPAN-1, 72 h, supplement Summary sheet, read-out: IC50): 20.7 µM
- IC50 ([2]; CAPAN-1, curve-fit output, concentrations in uM, read-out: IC50): 20.7 µM
SMILES: NC(=O)c1cccc2[nH]c(C3CCN(CCCC(=O)c4ccccc4)C3)nc12 (centres unmarked) [Compound 5cc, 2-(1-(4-Oxo-4-phenylbutyl)pyrrolidin-3-yl)-1H-benzo[d]imidazole-4-carboxamide]
- inhibition at 0.00508 µM ([1]; replicate 1, read-out: Inh % 1): -5%
- inhibition at 0.00508 µM ([1]; replicate 2, read-out: Inh % 2): -0.000277%
- inhibition at 0.0152 µM ([1]; replicate 1, read-out: Inh % 1): -5.6%
- inhibition at 0.0152 µM ([1]; replicate 2, read-out: Inh % 2): -6.4%
- inhibition at 0.0457 µM ([1]; replicate 1, read-out: Inh % 1): -12.8%
- inhibition at 0.0457 µM ([1]; replicate 2, read-out: Inh % 2): -9.3%
- inhibition at 0.41 µM ([1]; replicate 1, read-out: Inh % 1): -7.7%
- inhibition at 0.41 µM ([1]; replicate 2, read-out: Inh % 2): -9%
- inhibition at 1.23 µM ([1]; replicate 1, read-out: Inh % 1): -9.6%
- inhibition at 1.23 µM ([1]; replicate 2, read-out: Inh % 2): -10.8%
- inhibition at 3.7 µM ([1]; replicate 1, read-out: Inh % 1): -9.3%
- inhibition at 3.7 µM ([1]; replicate 2, read-out: Inh % 2): -9.7%
- inhibition at 11.11 µM ([1]; replicate 1, read-out: Inh % 1): -6.6%
- inhibition at 11.11 µM ([1]; replicate 2, read-out: Inh % 2): -8.1%
- inhibition at 33.33 µM ([1]; replicate 1, read-out: Inh % 1): 62%
- inhibition at 33.33 µM ([1]; replicate 2, read-out: Inh % 2): 38.7%
- inhibition at 100 µM ([1]; replicate 1, read-out: Inh % 1): 99.6%
- inhibition at 100 µM ([1]; replicate 2, read-out: Inh % 2): 99.3%
- LogIC50 ([1]; MDA-MB-436, curve fit on Log (uM) concentrations): 1.504
- Bottom ([1]; MDA-MB-436, curve fit parameter (Inh %)): -8.27
- Top ([1]; MDA-MB-436, curve fit parameter (Inh %), '= 100.0' is a constrained value): 100
- LogIC50 ([2]; CAPAN-1, curve-fit output, Log (uM)): 1.317
- inhibition at 0.00508 µM ([2]; replicate 1, read-out: Inh % 1): -7.2%
- inhibition at 0.00508 µM ([2]; replicate 2, read-out: Inh % 2): 1.2%
- inhibition at 0.0152 µM ([2]; replicate 1, read-out: Inh % 1): 1.3%
- inhibition at 0.0152 µM ([2]; replicate 2, read-out: Inh % 2): 4.1%
- inhibition at 0.0457 µM ([2]; replicate 1, read-out: Inh % 1): 1.4%
- inhibition at 0.0457 µM ([2]; replicate 2, read-out: Inh % 2): 9%
- inhibition at […] ([2]; replicate 1, read-out: Inh % 1): 8.1%
- inhibition at […] ([2]; replicate 2, read-out: Inh % 2): 7.4%
- inhibition at 0.41 µM ([2]; replicate 1, read-out: Inh % 1): 22.4%
- inhibition at 0.41 µM ([2]; replicate 2, read-out: Inh % 2): 6.9%
- inhibition at 1.23 µM ([2]; replicate 1, read-out: Inh % 1): 18%
- inhibition at 1.23 µM ([2]; replicate 2, read-out: Inh % 2): 5.8%
- inhibition at 3.7 µM ([2]; replicate 1, read-out: Inh % 1): 5.7%
- inhibition at 3.7 µM ([2]; replicate 2, read-out: Inh % 2): 1.6%
- inhibition at 11.11 µM ([2]; replicate 1, read-out: Inh % 1): 14.5%
- inhibition at 11.11 µM ([2]; replicate 2, read-out: Inh % 2): 8.2%
- inhibition at 33.33 µM ([2]; replicate 1, read-out: Inh % 1): 93.8%
- inhibition at 33.33 µM ([2]; replicate 2, read-out: Inh % 2): 86.5%
- inhibition at 100 µM ([2]; replicate 1, read-out: Inh % 1): 100%
- inhibition at 100 µM ([2]; replicate 2, read-out: Inh % 2): 99.5%

— PMC6572064, “Discovery of 2-(1-(3-(4-Chloroxyphenyl)-3-oxo- propyl)pyrrolidine-3-yl)-1H-benzo[d]imidazole-4-carboxamide: A Potent Poly(ADP-ribose) Polymerase (PARP) Inhibitor for Treatment of Cancer” (Molecules, 2019)
